Columns and labels:
[1] = tested on: full-thickness skin wound; assay: Mouse full-thickness skin wound model; format: in vivo; details: 1 mg/mL, 0.04 mL per wound site every 24 hr until day 12, negative control 854.2±119.2
Protocol: A full-thickness skin wound in which the skin on the back of a mouse was partially removed was prepared as described below, and the wound therapy promoting effect of the compound was evaluated by comparing the reduction rate of the wound area.
Compound K-1:J-1 was dissolved in a solvent (10% Pluronic F-68, 2% Propylene Glycol, 20 mM Tris buffer (pH 8.5)) at a concentration of 1 mg/mL, and administered by adding dropwise to the wound site (0.04 mL per one wound site). To the negative control, the solvent alone was administered by dropwise addition.
As the mouse, male BKS.Cg-Dock7m+/+Leprdb/J, 7-week-old, was purchased from CHARLES RIVER LABORATORIES JAPAN, INC. After removing the hair on the back, an 8 mm full-thickness skin wound was prepared using biopsy trepan (Kai Corporation) and protected with a coating material (Tegaderm transparent dressing, 3M). The wound preparation date was set as day 1, and 1 mg/mL compound K-1:J-1 was added dropwise at a dose of 0.04 mL per wound site every 24 hr until day 12. The area of the wound site was measured on days 1, 3, 6, 9, 13. The wound area on day 1 was set to 100%, and the total measured area was calculated as a percentage (%) with respect to the wound preparation date. Conducted in 6 cases in each group.

YAP-regulated genes = assay: DNA microarray gene expression in SKOV3 cells; format: cell-based, human; details: 10 μM
Protocol: According to the method of patent document (WO 2014/017513), a composition of McCoy's 5a medium (manufactured by Sigma-Aldrich) containing 0.015% (w/v) deacylated gellan gum (KELCOGEL CG-LA, manufactured by Sansho Co., Ltd.), 30 ng/mL human HB-EGF (manufactured by PEPROTECH), and 15% (v/v) FBS was prepared. Human ovarian cancer cell line SKOV3 cultured according to the protocol recommended by DS Pharma Biomedical Co., Ltd. was suspended in the medium and seeded on a 6 well plate (manufactured by Corning Incorporated, #3471) at 1,000,000 cells/3.3 mL/well. Successively, k-1:B-1 dissolved in DMSO was added to the cell suspension at a final concentration of 10 μM. After further culturing in a CO2 incubator at 37° C. for 6 or 24 hr, 11 mL of phosphate buffered saline (PBS, manufactured by Sigma-Aldrich Japan) was added to the cell culture medium and the cells were precipitated by a centrifugation treatment (400 G, 3 min). The supernatant was removed, the cells were suspended in PBS (10 mL), and further subjected to a centrifugation treatment (400 G, 5 min) to give cell pellets. Successively, total RNA (ribonucleic acid) was isolated from the obtained cells by using RNAeasy Mini Kit (manufactured by Qiagen). DNA microarray of this RNA was performed by HumanGene 2.0ST Array (manufactured by Affymetrix), and changes in the human gene expression due to the addition of the specific compound were comprehensively analyzed (gene analysis contract service of Kurabo Industries Ltd. was used, product number; GA0312).

SMILES	area under the wound area ratio (Area Under the Curve (AUC)) [1]	AMOTL2 expression rate when no addition is 1 (YAP-regulated genes; 6 hr later)	ANKRD1 expression rate when no addition is 1 (YAP-regulated genes; 6 hr later)	BIRC2 expression rate when no addition is 1 (YAP-regulated genes; 6 hr later)	CCND1 expression rate when no addition is 1 (YAP-regulated genes; 6 hr later)	CTGF expression rate when no addition is 1 (YAP-regulated genes; 6 hr later)	CYR61 expression rate when no addition is 1 (YAP-regulated genes; 6 hr later)	TGFB2 expression rate when no addition is 1 (YAP-regulated genes; 6 hr later)	AMOTL2 expression rate when no addition is 1 (YAP-regulated genes; 24 hr later)	ANKRD1 expression rate when no addition is 1 (YAP-regulated genes; 24 hr later)	BIRC2 expression rate when no addition is 1 (YAP-regulated genes; 24 hr later)	CCND1 expression rate when no addition is 1 (YAP-regulated genes; 24 hr later)	CTGF expression rate when no addition is 1 (YAP-regulated genes; 24 hr later)	CYR61 expression rate when no addition is 1 (YAP-regulated genes; 24 hr later)	TGFB2 expression rate when no addition is 1 (YAP-regulated genes; 24 hr later)
CC/C(=N\NC(=O)NCc1cccc(O)c1)c1ccc(O)c(C)c1O [k-1:J-1]	659.6±163.7 %×day	–	–	–	–	–	–	–	–	–	–	–	–	–	–
CC/C(=N\NC(=O)C(C)Nc1ccccc1)c1ccc(O)c(C)c1O (stereo not drawn) [k-1:B-1]	–	6.92	35.3	1.27	1.63	21.4	29.6	3.63	7.89	72.1	1.44	2.01	23.2	26.9	9.84

From patent publication US20210253518A1, “KINASE INHIBITOR” (NISSAN CHEMICAL CORPORATION, priority 2018, published 2021)
